Patent US20230120666A1, “EXCIPIENTS PROVIDING STABILIZATION AND ENHANCED WATER SOLUBILIZATION AND THEIR USES” (priority 2020, published 2023)
“Also recorded” adds a separate entry of the source.

How the values were obtained:
[1] = In vitro dissolution of Polymer Adducts and Hybrid Excipients; assay type: physicochemical; conditions: 0.1 N HCl pH 1.2, SGF pH 1.2, PB pH 6.8, SIF pH 6.8; 37±0.5° C.
Description: Simulated Gastric Fluid (SGF pH 1.2), Phosphate Buffer (PB pH 6.8) and Simulated Intestinal Fluid (SIF pH 6.8) as dissolution medium. […] At predetermined time intervals, 1 mL samples were withdrawn and replenished with the same volume of fresh medium. The RSV and CBD content in these samples were determined by using a UV-visible Spectrophotometer (U-3010, Hitachi, Japan) and specific amounts of RSV and CBD dissolved and were monitored and estimated as a function of time.
This multiple, hybrid excipient was then lyophilized and used for dissolution studies.

[2] = CBD water solubility / solubility enhancement by UV-Visible spectrometry; assay type: physicochemical; conditions: CBD 1 g in 100 mL water, Qsonica Q2000 1 hr at 100% amplitude, no excipient
healthy male volunteers = experiment: In vivo human oral ingestion study of CBD-SupraPlex excipient; conditions: for effects experienced within 15-30 min after ingestion: CBD-SupraPlex (Run #181) 35.6 μg/mL in DI water
Description: A highly documented “in house” CBD-SupraPlex® human oral ingestion study was performed to further evaluate the SupraPlex® Excipients in humans. This study involved two healthy male volunteers: Subject #1 was […], 5′10″, 190 lbs., […] an experienced CBD/THC consumer, and Subject #2 was […], 5′6″, 160 lbs., a naïve, and a THC/CBD non consumer […]).
The CBD-SupraPlex® excipient samples were prepared under sanitary, GLP conditions. All CBD dose concentrations were confirmed by standard HPLC protocols.
The CBD-SupraPlex® excipient samples used for oral ingestion were administered sequentially in three, 10 mL ingestion portions as clear, transparent DI aqueous solutions. The 1st portion was ingested in a sublingual mode and last two portions were ingested by normal swallowing. The esthetic taste features of CBD-SupraPlex® excipient (pH2), in DI water were: sour, citrus-lemon, (80% lemon-10% salt taste), slight terpene, slippery film like texture, but with no after taste. When used in ginger ale, it gave a very pleasant taste. At pH4, the sourness is eliminated to give a pleasant slight lemon taste.
Test 1: 10 mL containing 35.6 μg/mL of CBD in DI water, sublingual over 15 min. Test 2: 15 min. after Test 1, 10 mL/35.6 μg/mL of CBD in DI water, normal swallow over 15 min. Total CBD ingested=712 μg in 20 mL DI water over 30 min. Test 3: 15 min. after Test 2, repeat of Test 2 Total CBD ingested=1068 μg in 30 mL DI water over 45 min. Test 4: 2 days later, 40 mL/35.6 μg/mL of CBD in DI water, normal swallow before evening sleep. […] Subject #1 could rarely experience more than 4 hr. normal sleeper night, but after Test 4 they took a 35.6 μg/mL of CBD in 40 mL DI water, sublingual before sleep 2 days after Test 4. When taken before bedtime, about 1 mg CBD dose level gave an excellent, sustained 7-8 hr. sleep cycle with a rested, clear-headed wake-up, no fogginess or after effect.

[3] = Koch et al. 2020, cited from earlier work
[4] = Storage stability of 20 wt % SupraPlex formulations in sealed plastic vial at RT; assay type: physicochemical; conditions: loaded in 20 wt % Run #65 in DI water, pH 2.5±0.5, sealed poly(propylene) vial, 12 months
[5] = CBD water solubility / solubility enhancement by UV-Visible spectrometry; assay type: physicochemical; conditions: for solubility: thermodynamic from solid
Description: The General Method used to determine the solubility of CBD is as follows:
Water (1 mL) was added to one of the vials. […] A third vial was prepared with 100 mg of the agent, 1 mL of water, and no CBD for use as a background standard for correcting UV-visible spectra. All three vials were processed (ultrasound) together to minimize variations.
CBD solubility was determined by UV-Visible spectrometry.
Three methods were used for background subtraction: • 1. For agents with very little color, the CBD is seen as a peak on the side of a peak that can be readily measured by drawing a tangent line on the interfering peak to estimate a baseline. This is usable for pure samples, such as the commercial cyclodextrins. • 2. […] For strongly colored agents, small deviations in concentration can overwhelm the CBD signal. In these cases, the full spectra are measured and the standard is multiplied by a weighting factor before subtraction. The weighting factor is adjusted to give close to a zero absorbance at many wavelengths across the difference spectrum and the CBD spectrum is what remains.
CBD concentration is calculated as the absorbance at 274 nm in excess of the retentate absorbance relative to the absorbance of the CBD standard. Abs means absorbance in Table 1.

[6] = literature value, Modasiya et al. 2012; cited from earlier work
[7] = Excipient assisted resveratrol water solubility enhancement; assay type: physicochemical; conditions: water with the Excipients of the invention (PHC), aqueous with cosolvent or surfactant or cyclodextrin, thermodynamic from solid
Description: They were then examined to determine specific water solubility enhancement properties as a function of excipient composition and reaction parameters used for their syntheses.

[8] = literature value, Chauhan et al.; cited from earlier work

Structure (SMILES): C=C(C)[C@@H]1CCC(C)=C[C@H]1c1c(O)cc(CCCCC)cc1O [CBD, cannabidiol]
- in vitro dissolution performance [1]: saturation and incomplete dissolution profiles; also recorded: insoluble
- μg-CBD [2]: 31.36 µg
- sustained sleep cycle (healthy male volunteers; Subject #1, about 1 mg CBD as CBD-SupraPlex (Run #181) before bedtime): 7 to 8 h
- effects experienced within 15-30 min after ingestion (healthy male volunteers; Subject #1, experienced consumer): tingling in fingers, heightened focus, higher energy, relaxed feeling, reduced anxiety, some thirst noted
- effects experienced within 15-30 min after ingestion (healthy male volunteers; Subject #2, naïve non consumer): peaceful, relaxed, reduced anxiety, remained alert/coordinated, enhanced talking, laughing, higher energy movement, then some drowsiness after 1 hr.
- CBD in water alone ([3]; literature value): 0.0000627 mg/mL
- Water Solubility of CBD ([3]; no sonication): 0.0627 µg/mL
- solution depletion [4]: essentially no solution depletion
- increased solubility of CBD ([5]; in the presence of naked 2HPBCD): 2508.7 fold
- increased solubility of CBD ([5]; in the presence of naked ACD): 3066.2 fold
- increased solubility of CBD ([5]; in the presence of naked GCD): 278.7 fold
- increased solubility of CBD ([5]; sonication protocol in DI water, no excipient): 313.6 fold
- solubility ([5]; water with the Excipients of the invention, aqueous with cosolvent or surfactant or cyclodextrin, read-out: water solubility of CBD, enhanced): 500 to 15100 µg/mL
- solubility ([5]; water, high power sonication, read-out: Water Solubility of CBD): 31 µg/mL
- solubility ([5]; water, low power sonication, read-out: Water Solubility of CBD): 0.4 µg/mL
- increased solubility of CBD ([5]; with Run #1 retentate (Example 1), baseline not stated): 2717.8 fold
- increased solubility of CBD ([5]; with Run #3 retentate (Example 2), baseline not stated): 2673.2 fold
- increased solubility of CBD ([5]; with Run #4 retentate (Example 3), baseline not stated): 4843.2 fold
- increased solubility of CBD ([5]; with Run #12 insoluble nanosponge suspension (Example 5), baseline not stated): 3797.9 fold
- increased solubility of CBD ([5]; with Run #19 retentate (Example 4), baseline not stated): 4634.1 fold

Structure (SMILES): COc1cc(/C=C/C(=O)CC(=O)/C=C/c2ccc(O)c(OC)c2)ccc1O [curcumin]
- naked curcumin solubility in DI water [6]: 2.67 µg/mL
- solution depletion [4]: essentially no solution depletion

Structure (SMILES): Oc1ccc(C=Cc2cc(O)cc(O)c2)cc1 [resveratrol]
- in vitro dissolution performance [1]: saturation and incomplete dissolution profiles
- solubility [7]: 5010 to 30600 µg/mL
- solution depletion [4]: essentially no solution depletion
- naked resveratrol solubility in DI water [8]: 0.04 µg/mL
